Common to all, as to type: cell-based
For experiment [1], the system named is E. coli ATCC 8739. Put plainly: Growth inhibition of E. coli culture in LB (OD600 / BacTiter-Glo). The settings on record: for inhibition at 3000 µg/mL / inhibition at 500 µg/mL: Escherichia coli, ATCC8739; for inhibition at 3000 µg/mL / inhibition at 500 µg/mL / growth inhibition / growth inhibition in the presence of 400 μg/mL Tgase SEQ ID NO: 6: E. coli ATCC 8739. How it is done: (§1) For MIC determination of bacterial cultures, E. coli ATCC 8739, DH5-alpha, DH10-beta, and B. subtilis BGSC 1A1276 was grown overnight (16-18 hours) in LB broth at 37° C. The following day, the cell density of the saturated cultures was calculated using OD600 and cultures were diluted to 10^4 to 10^6 CFU/mL in sterile LB media to generate the inoculum, and 90 μL of the inoculum was combined with 10 μL of serially diluted Tgase SEQ ID NO:1 at a range of 0.0001-0.01 weight percent in the presence or absence of 0.003% lysozyme (100-fold lower than the effective concentration). Growth curves were measured by OD600 on a BioTek® Synergy Plate Reader. Optionally, the following day, a cell viability assay such as BacTiter-Glo™ (Promega®) following manufacturer's protocols) could be used to assess cell viability. A decrease in OD600 or luminescence indicated a decrease in cell viability. Results are presented as a percent reduction in cell count relative to an untreated culture. All test conditions were performed in triplicate.
E. coli ATCC 8739 was grown overnight in LB broth at 37° C. The following day, the cell density of the saturated cultures was calculated using OD600 and cultures were diluted to 10^4 to 10^6 CFU/mL in sterile LB media to generate the inoculum, and 90 μL of the inoculum was combined with 10 μL of serially diluted Tgase SEQ ID NO:6 at a range of 0.001-0.1 weight percent in the presence or absence of chemical preservatives at concentrations above and below the calculated MIC value. A single concentration (at the MIC) of the chemical preservative and static concentrations of Tgase SEQ ID NO:6 (400 μg/mL, 0.04% w/v) are presented in Table 8 as representative examples. Growth curves were measured by OD600 on a BioTek® Synergy Plate Reader and a cell viability assay (BacTiter-Glo™, Promega®, following manufacturer's protocols) was used to assess cell viability. A decrease in OD600 or luminescence indicated a decrease in cell viability. Results are presented as a percent reduction in cell count relative to an untreated culture. […]

In experiment [2] the test system is E. coli ATCC 8739. Put plainly: MIC determination, E. coli. Here is the method: (§2) A variant form of Streptomyces mobaraensis transglutaminase having the amino acid sequence depicted in SEQ ID NO:6 was prepared by literature methods with a hexa-his-tag to aid in purification (Javitt, et al. (2017) BMC Biotechnol. 17:23). The cells were grown in shake flasks, lysed by homogenization, and the Tgase variant (SEQ ID NO:6) was isolated from the cell debris by centrifugation. The resulting semi-purified enzyme (clarified lysate) were compared on an SDS-PAGE gel, by spectroscopy, and activity for concentration of active enzyme. The Tgase variant (SEQ ID NO:6) was further purified by affinity column on a Ni-IMAC resin prior to MIC assay. Tgase activity was measured in the examples herein using a colorimetric hydroxamate activity assay (Folk and Cole (1965) J Biol Chemistry 240(7):2951-2960). The enzyme was diluted to a working stock concentration of 2 mg/mL in CAMHB or RPMI media (bacterial or fungal media). This was then 2-fold serial diluted ten times in the appropriate media in a 96-well master plate to generate 2× starting concentrations for MIC testing.
(§3) Strains were acquired from the American Type Culture Collection (ATCC) (Manassas, VA) and maintained as −80° C. frozen glycerol stocks: S. aureus ATCC 6538, E. coli ATCC 8739, P. aeruginosa ATCC 9027, C. albicans ATCC 10231, and A. brasiliensis ATCC 16404. B. subtilis BGSC 1A1276 was purchased from the Bacillus Genetic Stock Center (BGSC) (Columbus, OH) and maintained as −80° C. frozen glycerol stock. Cation-adjusted Mueller-Hinton broth (CAMHB) at pH 7.3 was used for testing with bacterial species (unless otherwise noted), while RPMI 1640 media buffered with 0.165 M MOPS at pH 7.0 was used for testing with all fungal species.
For MIC determination, bacterial strains (S. aureus ATCC 6538, E. coli ATCC 8739, P. aeruginosa ATCC 9027) were grown overnight on Tryptic Soy Agar (TSA) plates at 37° C. A few colonies of each strain were collected with a sterile swab and used to make a McFarland 0.5 standard solution (approximately 1×10^8 CFU/mL) in sterile PBS. The McFarland solution was then diluted 1:100 in CAMHB to generate the inoculum, and 50 μL of this inoculum was combined with 50 μL of the 2× test article in a 96-well plate for a final concentration of 1×. All test conditions were performed in duplicate. The bacterial-strain MIC 96-well plates were incubated at 37° C. for 18 to 20 hours. MIC is defined as the lowest concentration of a compound in which no visible growth is observed.

Experiment [3] concerns P. aeruginosa ATCC 9027. Put plainly: MIC determination, P. aeruginosa. The following applies: CAMHB pH 7.3, 37° C., 18 to 20 hours, duplicate. Here is the method: as §2, §3
For MIC determination, bacterial strains (S. aureus ATCC 6538, E. coli ATCC 8739, P. aeruginosa ATCC 9027) were grown overnight on Tryptic Soy Agar (TSA) plates at 37° C. A few colonies of each strain were collected with a sterile swab and used to make a McFarland 0.5 standard solution (approximately 1×10^8 CFU/mL) in sterile PBS. […]

For experiment [4], the system named is C. albicans ATCC 10231. Put plainly: MIC determination, C. albicans. The following applies: RPMI 1640 pH 7.0, 37° C., 24 to 48 hours, duplicate. Here is the method: as §2, with “testing. […]” for “testing.”
(§4) C. albicans MIC 96-well plate was incubated for 37° C. for 24 to 48 hours. […] After incubation, all 96-well plates were examined visually and on a spectrophotometer at absorbance OD650. […]

For experiment [5], the system named is A. brasiliensis ATCC 16404. Put plainly: MIC determination, A. brasiliensis. The settings on record: RPMI 1640 pH 7.0, 25° C., up to 7 days, duplicate. How it is done: as §2, with “testing. […]” for “testing.”
as §4

Experiment [6] has as its system S. aureus ATCC 6538. Put plainly: MIC determination, S. aureus. The following applies: CAMHB pH 7.3, 37° C., 18 to 20 hours, duplicate. How it is done: as §2
Strains were acquired from the American Type Culture Collection (ATCC) (Manassas, VA) and maintained as −80° C. frozen glycerol stocks: S. aureus ATCC 6538, E. coli ATCC 8739, P. aeruginosa ATCC 9027, C. albicans ATCC 10231, and A. brasiliensis ATCC 16404. […]

For experiment [7], the system named is C. albicans ATCC 10231. As to the kind of experiment: Growth reduction of C. albicans culture (OD600 / BacTiter-Glo). Here is the method:
For MIC determination of yeast cultures, C. albicans ATCC 10231 was grown overnight (24 hours) in YPD media at 30° C. The following day, the cell density of the saturated cultures was calculated using OD600 and cultures were diluted to 10^4 to 10^6 CFU/mL in sterile YPD media to generate the inoculum, and 90 μL of the inoculum was combined with 10 μL of serially diluted Tgase SEQ ID NO:1 at a range of 0.0001-0.01 weight percent. The cultures were grown overnight at 30° C. and growth curves were measured by OD600 on a BioTek® Synergy Plate Reader. Optionally, the following day, a cell viability assay such as BacTiter-Glo™ (Promega®) following manufacturer's protocols) could be used to assess cell viability. A decrease in OD600 or luminescence indicated a decrease in cell viability. Results are presented as a percent reduction in cell count relative to an untreated culture. All test conditions were performed in triplicate.
(§5) Yeast or bacterial starter cultures were grown as described previously. Tgase (SEQ ID NO:6) was added to each culture at 0.001-1 weight percent. The cultures were grown overnight at 30° C.-37° C. and growth curves were measured by a BioTek® Synergy Plate Reader.

The subject of experiment [8] is B. subtilis BGSC 1A1276. As to the kind of experiment: Growth reduction of B. subtilis culture (OD600 / BacTiter-Glo). How it is done: as §1, §5
Setting [9] is: Escherichia coli, ATCC8739, read-out: Concentration (MIC values; single concentration at the MIC of the chemical preservative).
Where [10] appears, read: CAMHB pH 7.3, 37° C., 18 to 20 hours, duplicate.

Where “and” joins values, the source holds several entries; their conditions need not be identical. Identical values can stand only once. Like-named read-outs stand apart in the source and are kept apart here.

For the molecule `CCCCC(O)CO` (centres unmarked) [1,2-hexandiol], the inhibition at 3000 µg/mL worked out at 99.5% in experiment [1] (3,000 μg/mL preservative + 400 μg/mL Tgase SEQ ID NO: 6, read-out: growth inhibition in the presence of 400 μg/mL Tgase SEQ ID NO: 6) and 97.9% in experiment [1] (3,000 μg/mL, read-out: growth inhibition). Further, the MIC in experiment [2] (setting [9]) came to 3000 µg/mL.
For `CCCCCCC(O)CO` (centres unmarked) [1,2-octandiol], the inhibition at 500 µg/mL was 99.3% in experiment [1] (500 μg/mL preservative + 400 μg/mL Tgase SEQ ID NO: 6, read-out: growth inhibition in the presence of 400 μg/mL Tgase SEQ ID NO: 6) and 97.8% in experiment [1] (500 μg/mL, read-out: growth inhibition). Also, the MIC in experiment [2] (setting [9]) turned out to be 500 µg/mL.
`Cn1sccc1=O` [MIT, Methylisothiazolinone]: the growth inhibition in experiment [1] (150 μg/mL) came to 98.7%. The “growth inhibition in the presence of 400 μg/mL Tgase SEQ ID NO: 6” value in experiment [1] (150 μg/mL preservative + 400 μg/mL Tgase SEQ ID NO: 6) stood at 99.8%. Also, the “Concentration (MIC values; single concentration at the MIC of the chemical preservative)” value (“Concentration” below) in experiment [2] is 150 µg/mL.
In the case of `O=C([O-])c1ccccc1.[Na+]` [Sodium benzoate, sodium benzoate], the growth inhibition in experiment [1] (10,000 μg/mL) stood at 99.85%. Further, in experiment [1] (10,000 μg/mL preservative + 400 μg/mL Tgase SEQ ID NO: 6), the “growth inhibition in the presence of 400 μg/mL Tgase SEQ ID NO: 6” value was determined as 99.97%. The MIC in experiment [3] was 10,000 μg/mL; in experiment [4], >20,000 μg/mL; in experiment [5], 2,500 μg/mL and 1,250 μg/mL; in experiment [6], 10,000 μg/mL; in experiment [2] (setting [10]) it was 10,000 μg/mL. Moreover, the “Concentration” value in experiment [2] is 10,000 μg/mL.
For Benzalkonium chloride, the growth inhibition in experiment [1] (16 μg/mL) is listed as 99.7%. Further, the “growth inhibition in the presence of 400 μg/mL Tgase SEQ ID NO: 6” value in experiment [1] (16 μg/mL preservative + 400 μg/mL Tgase SEQ ID NO: 6) was determined as 99.94%. Moreover, the MIC in experiment [3] was 62.5 µg/mL and 31.25 µg/mL; in experiment [4], 3.91 µg/mL; in experiment [2] (setting [10]), 15.63 µg/mL. The “Concentration” value in experiment [2] is 16 µg/mL.

B1: Tgase (SEQ ID NO: 1): wild-type Streptomyces mobaraensis transglutaminase, mature form, amino acid sequence SEQ ID NO:1 (protein, listed as Streptomyces mobaraensis)
chain: DSDDRVTPPAEPLDRMPDPYRPSYGRAETVVNNYIRKWQQVYSHRDGRKQQMTEEQREWLSYGCVGVTWVNSGQYPTNRLAFASFDEDRFKNELKNGRPRSGETRAEFEGRVAKESFDEEKGFQRAREVASVMNRALENAHDESAYLDNLKKELANGNDALRNEDARSPFYSALRNTPSFKERNGGNHDPSRMKAVIYSKHFWSGQDRSSSADKRKYGDPDAFRPAPGTGLVDMSRDRNIPRSPTSPGEGFVNFDYGWFGAQTEADADKTVWTHGNHYHAPNGSLGAMHVYESKFRNWSEGYSDFDRGAYVITFIPKSWNTAPDKVKQGWP
Consider B1, for which the “Fold improvement in enzyme efficacy” value is reported as 1 in experiment [7] (C. albicans ATCC 10231, Tgase (SEQ ID NO: 1) = 1) and 1 in experiment [8] (Tgase (SEQ ID NO: 1) alone = 1). In addition, the “Percent Growth Reduction” value in experiment [7] (C. albicans ATCC 10231, enzyme concentration 800 ug/mL) stood at 83.11%; in experiment [8] (enzyme concentration 960 ug/mL), 99.17%. For the same molecule, the “growth inhibition (in words)” value was “partially inhibited” in experiment [7] (C. albicans, Tgase alone); “partially inhibited” in experiment [8] (Tgase alone); “Full inhibition” in experiment [8] (upon adding a cell membrane disruptor, lysozyme). Moreover, the growth inhibition in experiment [1] (960 μg/mL) was determined as 0.0%. The antimicrobial activity result in experiment [1] (gram negative E. coli ATCC 8739, DH5-alpha and DH10-beta, under the concentrations evaluated) is “little or no detectable antimicrobial activity”.

The record behind these values is patent publication US20230329245A1, “COMPOSITIONS AND METHODS OF USE THEREOF” (Curie Co. Inc., priority 2020, published 2023).
